Data from US4921846A, “Novel 17-hetero substituted steroids” (Roussel Uclaf, priority 1987, dated 1990).

Legend:
[1] = target: T1, Progestogene receptor of the uterus of a rabbit (Oryctolagus cuniculus, UniProt P06186); assay: Progestogene receptor of the uterus of a rabbit, relative bond affinity; format: binding; conditions: for relative bond affinity (RBA), Progestogene: RBA=100(CH)/(CX)
T1 construct: The uteri were removed, weighted and homogenized at 0° C; from tissue; host or cells: uterus of estradiol-treated impuberal female rabbits, 105,000 g supernatant (cytosol)
T1 sequence (P06186 1-930): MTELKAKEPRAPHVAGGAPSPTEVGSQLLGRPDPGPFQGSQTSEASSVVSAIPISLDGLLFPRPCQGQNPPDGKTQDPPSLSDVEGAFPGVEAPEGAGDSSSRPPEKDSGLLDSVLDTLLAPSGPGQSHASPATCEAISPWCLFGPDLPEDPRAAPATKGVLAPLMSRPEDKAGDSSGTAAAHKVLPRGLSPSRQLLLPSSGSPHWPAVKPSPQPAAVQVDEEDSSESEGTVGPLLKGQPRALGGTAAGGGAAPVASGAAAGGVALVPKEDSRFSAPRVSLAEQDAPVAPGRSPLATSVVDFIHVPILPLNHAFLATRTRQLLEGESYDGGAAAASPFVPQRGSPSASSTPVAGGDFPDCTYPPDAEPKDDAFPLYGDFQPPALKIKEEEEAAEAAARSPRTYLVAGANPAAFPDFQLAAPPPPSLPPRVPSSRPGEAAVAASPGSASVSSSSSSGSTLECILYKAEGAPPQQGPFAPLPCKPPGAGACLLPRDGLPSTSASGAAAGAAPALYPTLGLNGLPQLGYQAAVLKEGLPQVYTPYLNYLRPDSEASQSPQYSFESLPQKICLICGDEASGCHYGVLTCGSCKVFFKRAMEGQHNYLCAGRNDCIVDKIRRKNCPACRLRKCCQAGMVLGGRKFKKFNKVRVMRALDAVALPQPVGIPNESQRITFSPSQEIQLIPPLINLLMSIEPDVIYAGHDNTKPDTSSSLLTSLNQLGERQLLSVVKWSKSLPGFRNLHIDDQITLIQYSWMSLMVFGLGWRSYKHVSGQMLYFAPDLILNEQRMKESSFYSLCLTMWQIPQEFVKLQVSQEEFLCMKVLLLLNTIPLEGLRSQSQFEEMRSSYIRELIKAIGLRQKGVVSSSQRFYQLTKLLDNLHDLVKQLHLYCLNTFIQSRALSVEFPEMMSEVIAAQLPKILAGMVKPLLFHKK
Method: Impuberal female rabbits of about 1 kg received a cutaneous application of […] of estradiol and, 5 days after this treatment, the animals were killed. The uteri were removed, weighted and homogenized at 0° C. in a Potter teflon-dish in a buffered solution TS (Tris 10 mM, saccharose 0.25M, HCl pH 7.4) (1 g of tissue per 50 ml of TS). The homogenate was then ultra-centrifuged (105,000 g×90 minutes) at 0° C. and aliquots of the supernatant thus obtained were incubated at 0° C. for a time t, with a constant concentration (T) of tritiated product R (17,21-dimethyl-19-nor-Δ^4,9 -pregnadien-3,20-dione) in the presence of increasing concentrations (0-2500×10^-9 M) either of cold R, or of cold progesterone or of the cold product under test. The concentration of bonded tritiated R (B) […] by the technique of adsorption on dextran carbon.
(§1) The calculation of the relative bond affinity (RBA) was the same for all the receptors. The following 2 curves were drawn: the percentage of bonded tritiated hormone B/T as a function of the logarithm of the concentration of the cold reference hormone and B/T as a function of the logarithm of the concentration of the cold product under test. The straight line of the equation I50 =(B max/T+B min/T)/2 was determined. B/T max = percentage of bonded tritiated hormone for an incubation of this hormone tritiated at a concentration (T). B/T min = percentage of bonded tritiated hormone for an incubation of this tritiated hormone at a concentration (T) in the presence of a large excess of cold hormone (2500×10^-9 M). The intersections of the straight line I50 and the curves enables the concentrations of cold reference hormone (CH) and of cold product under test (CX) which inhibit by 50% the bond of the tritiated hormone on the receptor to be evaluated. The relative bond affinity (RBA) of the product tested was determined by the equation: […]

[2] = target: T2, Glucocorticoid receptor of the thymus of a rat (Rattus norvegicus, UniProt P06536); assay: Glucocorticoid receptor of the thymus of a rat, relative bond affinity; format: binding; conditions: for relative bond affinity (RBA), Glucocorticoid: RBA=100(CH)/(CX), reference dexamethasone
T2 construct: The thymuses were removed and homogenized at 0° C; from tissue; host or cells: thymus of adrenalectomized male Sprague-Dawley rats, 105,000 g supernatant (cytosol)
T2 sequence (P06536 1-795): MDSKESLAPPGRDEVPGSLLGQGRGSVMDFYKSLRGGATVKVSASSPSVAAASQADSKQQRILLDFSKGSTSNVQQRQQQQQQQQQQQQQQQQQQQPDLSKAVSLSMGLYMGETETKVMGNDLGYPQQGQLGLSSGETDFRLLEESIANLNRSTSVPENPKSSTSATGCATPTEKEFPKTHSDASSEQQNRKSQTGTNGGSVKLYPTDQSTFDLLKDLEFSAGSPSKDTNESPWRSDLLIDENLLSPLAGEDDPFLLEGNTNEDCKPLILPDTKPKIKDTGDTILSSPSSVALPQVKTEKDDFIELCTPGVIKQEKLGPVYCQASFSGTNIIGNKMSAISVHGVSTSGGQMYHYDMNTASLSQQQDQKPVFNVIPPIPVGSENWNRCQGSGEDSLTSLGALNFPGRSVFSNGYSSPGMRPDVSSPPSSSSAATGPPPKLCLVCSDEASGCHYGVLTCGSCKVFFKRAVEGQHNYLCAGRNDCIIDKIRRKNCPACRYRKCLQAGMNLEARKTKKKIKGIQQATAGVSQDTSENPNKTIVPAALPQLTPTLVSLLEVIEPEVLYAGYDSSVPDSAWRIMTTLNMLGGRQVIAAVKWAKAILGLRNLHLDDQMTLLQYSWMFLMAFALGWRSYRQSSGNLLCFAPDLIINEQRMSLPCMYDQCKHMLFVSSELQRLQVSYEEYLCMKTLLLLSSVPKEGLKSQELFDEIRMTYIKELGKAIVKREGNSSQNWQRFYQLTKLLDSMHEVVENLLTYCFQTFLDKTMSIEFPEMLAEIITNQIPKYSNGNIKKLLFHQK
Method: Sprague-Dawley EPOS male rats weighting 160 to 200 g were suprarenalectomized and, 4 to 8 days after this removal, the animals were killed. The thymuses were removed and homogenized at 0° C. in a buffer Tris 10 mM, saccharose 0.25M, dithiothreitol 2 mM, HCl, pH 7.4, with Potter polytetrafluoroethylene-dish (1 g of tissue per 10 ml of TS). The homogenate was then ultra-centrifuged (105,000 g×90 minutes) at 0° C. Aliquots of the supernatant thus obtained were incubated at 0° C. for a time t, with a constant concentration (T) of tritiated dexamethasone in the presence of increasing concentrations (0-2500×10^-9 M) either of cold dexamethasone, or of cold product under test. The concentration of bonded tritiated […] (B) was then measured in each incubate by the technique of adsorption on dextran carbon.
as §1

[3] = test system: Thymocytes of suprarenalectomized rats; assay: Antiglucocorticoid activity: tritiated uridin incorporation in thymocytes with dexamethasone; format: cell-based; conditions: Rattus norvegicus, Thymocyte, 5.10^-8 M dexamethasone, 37° C., read-out: % inhibition of the effect of dexamethasone; for inhibition at 1 µM: product at 10^-6 M; for inhibition at 0.1 µM: product at 10^-7 M; for inhibition at 0.01 µM: product at 10^-8 M
Method: The technique used was derived from the method described by Dausse et al in Molecular Pharmacology, Vol. 13, p.
Thymocytes of suprarenalectomized rats were incubated at 37° C. for 3 hours in a nutritive medium containing 5.10^-8 M of dexamethasone in the presence or absence of a product test at various concentrations. Tritiated uridin was added and incubation was continued for one hour. The incubates were cooled, treated with a 5% solution of trichloroacetic acid, filtered on Whatman GF/A paper and washed three time with a 5% solution of trichloroacetic acid. The radioactivity retained by the filter was determined. Glucocorticoids and, in particular dexamethasone, cause a decrease in the incorporation of tritiated uridin.

[4] = test system: female rat; assay: Abortive activity in a female rat; format: in vivo; conditions: 3 mg/kg on day D9 of gestation, suspension in carboxymethyl cellulose containing 0.5% Tween; examined 72 hours after treatment
Method: Day D1 of gestation was determined by the presence of spermatozoids in the vaginal smear and, on day D9 of the gestation, the product was administered in suspension in carboxymethyl cellulose containing 0.5% Tween. The animals were killed 72 hours after the treatment and the uterus was examined to determine the state of gestation.

## CN(C)c1ccc([C@H]2C[C@@]3(C)[C@@H](CC[C@@]34CCO4)[C@@H]3CCC4=CC(=O)CCC4=C32)cc1 [Example 1, (17R) 11β-[4-(dimethylamino)-phenyl]-spiro-(Δ^4,9-estradien-17,2'-oxetan)-3-one]
[1]; Incubation Time at 0° C.: 2 H
  relative bond affinity (RBA), Progestogene: 93
[1]; Incubation Time at 0° C.: 4 H
  relative bond affinity (RBA), Progestogene: 415
[1]; conclusion
  affinity for progestogen receptors (in words): marked affinity
[2]; Incubation Time at 0° C.: 2 H
  relative bond affinity (RBA), Glucocorticoid: 126
[2]; Incubation Time at 0° C.: 4 H
  relative bond affinity (RBA), Glucocorticoid: 43
[2]; conclusion
  affinity for glucocorticoid receptors (in words): marked affinity
[3]
  inhibition at 1 µM: 122%
  inhibition at 0.1 µM: 55%
  inhibition at 0.01 µM: 16%
[4]
  abortion (state of gestation): complete abortion in all the animals of the group

## CSc1ccc([C@H]2C[C@@]3(C)[C@@H](CC[C@@]34CCO4)[C@@H]3CCC4=CC(=O)CCC4=C32)cc1 [Example 2, (17R) 11β-[4-(methylthio)-phenyl]-spiro-(Δ^4,9-estradient-17,2'-oxetan)-3-one]
[1]; Incubation Time at 0° C.: 2 H
  relative bond affinity (RBA), Progestogene: 23
[1]; Incubation Time at 0° C.: 4 H
  relative bond affinity (RBA), Progestogene: 67
[2]; Incubation Time at 0° C.: 2 H
  relative bond affinity (RBA), Glucocorticoid: 56
[2]; Incubation Time at 0° C.: 4 H
  relative bond affinity (RBA), Glucocorticoid: 22
[3]
  inhibition at 1 µM: 76%
  inhibition at 0.1 µM: 27%
  inhibition at 0.01 µM: 10%

## CN(C)c1ccc([C@H]2C[C@@]3(C)[C@@H](CC[C@@]34CCCCO4)[C@@H]3CCC4=CC(=O)CCC4=C32)cc1 [Example 3, (17S) 11β-[4-(dimethylamino)-phenyl]-3',4',5',6'-tetrahydro spiro (Δ^4,8-estradien-17,2'-(2H)pyran)-3-one]
[1]; Incubation Time at 0° C.: 2 H
  relative bond affinity (RBA), Progestogene: 24
[1]; Incubation Time at 0° C.: 4 H
  relative bond affinity (RBA), Progestogene: 157
[2]; Incubation Time at 0° C.: 2 H
  relative bond affinity (RBA), Glucocorticoid: 23
[2]; Incubation Time at 0° C.: 4 H
  relative bond affinity (RBA), Glucocorticoid: 24
[3]
  inhibition at 1 µM: 93%
  inhibition at 0.1 µM: 22%
  inhibition at 0.01 µM: 7%
